Experimental data published in US7220575B2, “Melanoma differentiation associated gene-5 and promoter and uses thereof” (priority 2000, dated 2007).
“Also recorded” adds a separate entry of the source.

Legend:
mda-5 expression [1] = experiment: Northern blot analysis of mda-5 expression in HO-1 human melanoma cells; type: cell-based; details: HO-1 cells; for mda-5 expression (steady-state mda-5 message level): treated 24 hr, Northern blot
Experimental: (§1) FIGS. 2A–2B. Northern blot analysis of mda-5 expression by various compounds inducing differentiation in HO-1 human melanoma cells. RNA samples were extracted from cells treated as indicated for 24 hr. FIG. 2A. HO-1 human melanoma cells. FIG. 2B. Early passage human skin fibroblast cells. Northern hybridization was performed as in Materials and Methods.
(§2) FIGS. 4A–4B. Northern blot analysis of mda-5 expression by ligands for various membrane receptors. RNA samples were extracted from cells treated as indicated for 24 hr. FIG. 4A. HO-1 human melanoma cells. FIG. 4B. Early passage human skin fibroblast cells. Northern hybridization was performed as in Materials and Methods.
FIG. 5. Northern blot analysis and time course of mda-5 expression. RNA samples were extracted from HO-1 cells treated with the indicated reagents and harvested at the indicated time after treatment. Northern blotting was performed as in Materials and Methods.
(§3) FIGS. 7A–7C. […] A. Northern blot analysis of mda-5. […] Cells were harvested at the indicated time after actinomycin D treatment. Northern hybridization was performed as in Materials and Methods. FIG. 7B. Nuclear run-on assays for determining mda-5 transcription rates. Nuclei were prepared from HO-1 melanoma cells treated with the indicated reagent(s) for 4 hr. Blots were prepared and hybridized as described in Materials and Methods. […] FIG. 7C. Northern blot analysis of mda-5 expression after blocking protein synthesis by cycloheximide (CHX). RNA samples were extracted from HO-1 melanoma cells pretreated with 50 μg/ml cycloheximide for 30 min and treated with the indicated reagents for 8 hr. Abbreviations and concentrations of indicated reagents are as in FIG. 4.
(§4) Cell Culture and Treatment Protocol: HO-1 human melanoma cells, early passage human skin fibroblast (purchased from ATCC) and 293T cells were grown in Dulbecco's modified Eagle's medium supplemented with 10% fetal bovine serum at 37° C. in a 5% CO2/95% air humidified incubator. Prior to treatment, cells were refed with fresh medium and exposed to the indicated compound(s) at the concentrations specified in the figure legends.
(§5) Northern Blot Analyses and Nuclear Run-On Assays: Total cellular RNA samples were prepared by guanidium isothiocyanate/phenol extraction followed by isopropanol precipitation. Ten 10 μg of total RNA were resolved in 1% agarose gels with formaldehyde and were transferred to Nylon membranes. EcoRI fragment of mda-5 cDNA (2.5 kb) was labeled with 32P using a multiprime labeling kit (Boehringer Mannheim) and used to probe the transferred membrane. Nuclear run-on assays were performed as previously described ((17) Su et al., 1993, 1999). Probes used for nuclear run-on assays were prepared by RT-PCR and included the mda-5 5′, 9–837 bp; mda-5 3′, 2531–3365 bp; and GAPDH fragment.

mda-5 transcription = experiment: Nuclear run-on assays for mda-5 transcription rates in HO-1 melanoma cells; type: cell-based, human; details: HO-1 cells treated 4 hr
Experimental: as §3
as §5, with “Probes used for nuclear run-on assays were prepared by RT-PCR and included the mda-5 5′, 9–837 bp; mda-5 3′, 2531–3365 bp; and GAPDH fragment.” left out

mda-5 expression [2] = experiment: Northern blot analysis of mda-5 expression in early passage human skin fibroblast cells; type: cell-based
Experimental: as §1, §2, §4, §5

mda-5 promoter = mda-5 promoter luciferase reporter in HO-1 cells (transient and stable clones); type: cell-based, human
Experimental: FIG. 11: Screening of stable human HO-1 melanoma clones for promoter activity of stably integrated mda-5 reporter construct. Transfected HO-1 cells were selected by Puromycin drug selection and individual colonies analyzed for induction of luciferase activity in the presence of IFN-β. Values are expressed as fold change against uninduced values of luciferase activity.
FIG. 12: Induction kinetics of mda-5 promoter activity. Stable clones #20 and #40 were treated with IFN-β and samples were harvested and analyzed for luciferase activity at the times indicated.
FIG. 13: Responsiveness of the mda-5 promoter to IFN-β levels: Stable clones #20 and #40 were treated with IFN-β and samples were harvested and analyzed for luciferase activity 48h after initiation of treatment. The extent of activity was normalized based on equivalent protein content and performed in duplicate for each clone.
FIGS. 14A–14B: Responsiveness of the mda-5 promoter to various inducers: FIG. 14A. HO-1 cells transiently transfected with the mda-5 reporter and treated for 48 h with equivalent units of IFNs α, β and γ and TNF-α and poly IC:IC. The luciferase activity was expressed as fold increase over untreated control cells. FIG. 14B. Clone #40 was treated with equivalent units of the indicated IFNs for 48 h and luciferase activity expressed as fold activation over untreated cells determined. […]

Molecule | mda-5 expression (steady-state mda-5 message level) (mda-5 expression [1]) | mda-5 expression (mda-5 expression [2]) | also measured
C=C(C)[C@@]12O[C@@]3(c4ccccc4)O[C@@H]1[C@@H]1[C@@H]4O[C@]4(CO)[C@@H](O)[C@]4(O)C(=O)C(C)=C[C@H]4[C@@]1(O3)[C@H](C)[C@H]2OC(=O)/C=C/C=C/c1ccccc1 [MEZ, mezerein] | does not induce mda-5 expression |  | augmentation of mda-5 expression by MEZ in combination with IFN-β (mda-5 expression [1]; 24 hr): approximately 3 fold; augmentation of mda-5 expression by MEZ in combination with IFN-γ (mda-5 expression [1]; 24 hr): ~5 fold; time at which mda-5 message level begins increasing / induction first apparent (mda-5 expression [1]; time course): 48 h; mda-5 transcription (nuclear run-on) (mda-5 transcription): negligible levels of transcription
CC1=C(/C=C/C(C)=C/C=C/C(C)=C/C(=O)O)C(C)(C)CCC1 [all trans retinoic acid, all-trans-retinoic acid] | fail to significantly induce mda-5 expression |  | 
IFN-γ: interferon-γ | induce mda-5 expression; also recorded: increase mda-5 transcript levels, but the magnitude of this effect is less than with IFN-β or dsRNA | induce mda-5 expression | 
COc1c(C)c2c(c(O)c1C/C=C(\C)CCC(=O)O)C(=O)OC2 [mycophenolic acid] | fail to significantly induce mda-5 expression |  | 
IFN-α | induce mda-5 expression; also recorded: increase mda-5 transcript levels, but the magnitude of this effect is less than with IFN-β or dsRNA | induce mda-5 expression | 
poly IC | induce mda-5 expression | induce mda-5 expression | mda-5 expression (steady-state mda-5 message level) (mda-5 expression [1]; listed as dsRNA): dramatically increases; responsiveness of mda-5 promoter construct / clones to inducer (mda-5 promoter): most responsive
Nc1ncnc2c1ncn2[C@@H]1O[C@@H]2COP(=O)(O)O[C@H]2[C@H]1O [cyclic-AMP, 3′–5′ cyclic adenosine monophosphate] | fail to significantly induce mda-5 expression |  | 
C[C@@H]1C[C@@H]([C@H](O)CC2CC(=O)NC(=O)C2)C(=O)[C@@H](C)C1 [Cycloheximide, cycloheximide] |  |  | effect of cycloheximide pre-treatment on mda-5 steady-state mRNA levels induced by IFNs, TNF and poly IC (mda-5 expression [1]; 50 μg/ml cycloheximide 30 min, then inducers 8 hr): does not inhibit
C[S+](C)[O-] [dimethyl sulfoxide] | fail to significantly induce mda-5 expression |  | 
CCCCCCCCCCCCCC(=O)O[C@@H]1[C@@H](C)[C@@]2(O)[C@@H](C=C(CO)C[C@]3(O)C(=O)C(C)=C[C@@H]23)[C@@H]2C(C)(C)[C@]12OC(C)=O [TPA, 12-O-tetradecanoylphorbol-13-acetate] | fail to significantly induce mda-5 expression |  | 
TNF-α | induce mda-5 expression; also recorded: comparable levels as seen with IFN-α | induce mda-5 expression | 
